Test results taken from patent publication US10907181B2, “Biosynthetic pathways and products” (REGENTS OF THE UNIVERSITY OF MINNESOTA, priority 2013, dated 2021).

Legend:
[1] = Extraction of anhydromevalonolactone with different organic solvents (extract efficiency and partition coefficient Kd, solvent/water); type: physicochemical
Text: Purification of anhydromevalonolactone also was studied by extraction with different organic solvents (Table 1). Approximately 96% of the anhydromevalonolactone was extracted when chloroform was applied at a 1:1 volume ratio. […] NMR analysis indicated the anhydromevalonolactone was in the lactone form, instead of equilibrating with its hydroxyacid form (FIG. 6).
The fermentation broth from the bioreactor was harvested by centrifuge, and then was discolored by activated charcoal. The test tubes were filled with 5 mL fermentation broth and concentrated H3PO4 or H2SO4, then autoclaved for one hour to make anhydromevalonate, and then the concentrations of mevalonate and anhydromevalonate were measured by HPLC. Immiscible organic solvents were used to extraction anhydromevalonate from the reaction mixture.

[2] = liquid-liquid solvent extraction at equal volume ratio; details: not told
[3] = liquid-liquid solvent extraction at equal volume ratio, HPLC quantification; details: not told

With CC1=CC(=O)OCC1 [Anhydromevalonolactone, anhydromevalonolactone] the Anhydromevalonolactone extract efficiency ([1]; solvent Benzene) was 65.26%, the Anhydromevalonolactone extract efficiency ([1]; solvent CHC13 (chloroform), 1:1 volume ratio) was 96.14% and the Anhydromevalonolactone extract efficiency ([1]; solvent CHC13 (chloroform), 1:1 volume ratio, listed as anhydromevalonolactone) was “Approximately 96%”. The Anhydromevalonolactone extract efficiency ([1]; solvent DIBK) was 44.15%, the Anhydromevalonolactone extract efficiency ([1]; solvent MIBK) was 79.90% and the Anhydromevalonolactone extract efficiency ([1]; solvent Oley) was 35.56%. For the same compound, the Anhydromevalonolactone extract efficiency ([1]; solvent ethyl acetate) was 79.67%, the “partition coefficient (Kd)” value [2] was 25 concentration ratio (Kd) and the “partition coefficient (Kd)” value [3] was 24.89 concentration ratio (Kd).
